Experimental findings from patent publication US10213407B2, “Compounds and methods for inhibiting production of trimethylamine” (The Procter & Gamble Company, priority 2015, dated 2019) are described below.

The experiment has as its system Proteus mirabilis 29906 (Pm) lysate. In words: Inhibition of formation of TMA from choline in Proteus mirabilis lysate (d9-choline to d9-TMA, LC-MS/MS). The experiment is classed as biochemical. The settings on record: conversion of choline to TMA; Pm lysate 1.5 mg/mL protein, 50 μM d9-choline chloride, 37° C., two hours; read-out: TMA Inhibition (IC50, mol/L). On the procedure:
EXAMPLE 2 Assay for identifying and characterizing compounds that inhibit the formation of TMA from choline.
This example provides an exemplary assay for identifying and characterizing compounds that inhibit the formation of TMA from choline.
Proteus mirabilis 29906 (Pm) strain was grown aerobically overnight in 500 ml of Nutrient Broth media (3 g/L beef extract, 5 g/L Peptone; Difco #234000) at 37° C. with 250 rpm shaking. The biomass was pelleted by centrifugation at 6000×g for 12 minutes at 4° C. The cell pellet was suspended in 240 mL of ice-cold 1× Phosphate Buffered Saline (Ca^2+ and Mg^2+ free). Ninety micrograms of Lysozyme (Sigma #L6876 Lot #SLBG8654V; Sigma-Aldrich Corp., St. Louis, Mo.) was added and incubated with 320 rpm shaking for 30 minutes at 4° C. Lysis was achieved via French press with a 4° C. prechilled 1″ diameter chamber at 1000 psi (high ratio; internal PSI equivalent ˜16000). The lysate was centrifuged at 6,000×g for 12 minutes at 4° C. to pellet extra debris. A protein concentration of the centrifuged lysate supernatant was determined by a BCA Protein Assay Kit (Pierce #23225; Thermo Fisher Scientific Co., Waltham, Mass.) and protein concentration adjusted to 3 mg/ml with 1× Dulbecco's phosphate buffered saline (DPBS). The centrifuged supernatant lysate was aliquoted into 20 mL volumes and stored frozen at −80° C.
Proteus mirabilis 29906 (Pm) lysate was diluted to 1.5 mg/mL protein with 1×DPBS. Choline chloride (CC) (1M stock) was added to reach a final concentration of 2.5 mM choline chloride. The mixture was mixed using a vortex mixer for approximately 15 seconds and incubated at 37° C. for 22 hours. After incubation, 150 μL of CC-treated Pm lysate was dispensed into a deep-well plate (polypropylene, 2 mL volume, Corning Axygen catalogue #P-DW-20-C). Candidate IC50 compounds from TABLE 1 and vehicle control (respective vehicle control of DMSO or water), or control compounds (IC50 control, 8-Quinolinol hemisulfate salt (Sigma Catalog #55100)) were added at a 1:100 dilution (e.g., 1.5 μL per well). The plates were agitated on a plate shaker for 1 minute. d9-choline chloride (1.5 μL of 5 mM) was added to all wells to reach a final d9-choline chloride concentration of 50 μM.
The plates were again agitated on a plate shaker for 1 minute and incubated at 37° C. for two hours. After incubation, 1.5 μL of formic acid was added to each well (final concentration=1% formic acid). The plates were agitated on a plate shaker for 1 minute and placed on ice. Cell lysate samples were spiked with stable isotope labeled internal standard (22.5 μL of 6 μg/mL of 13C3-trimethylamine (13C3-TMA) was added to each sample), then d9-trimethylamine (d9-TMA), trimethylamine (TMA) and 13C3-TMA were isolated from the lysate after protein precipitation as described below. Acetonitrile acidified with 0.1% formic acid, 600 μL, was added to each sample which was then centrifuged (2,100 g for 20 minutes) to pellet the protein and other precipitates. The supernatant was removed and analyzed as described below. The TMA, d9-TMA and 13C3-TMA in the isolated supernatant samples were subjected to gradient High Performance Liquid Chromatography (HPLC) analysis on a Waters Atlantis HILIC Silica column, from Waters Corp., Milford, Mass., (2.1×50 mm, 3 μm particles) with an Atlantis Silica HILIC Sentry guard column, from Waters Corp., Milford, Mass., (100 Å, 3 μm, 2.1 mm×10 mm), 10 mM ammonium formate in water with 0.1% formic acid as mobile phase A and 0.1% formic acid in acetonitrile as mobile phase B. Detection and quantitation was achieved by tandem mass spectrometry operating under multiple reaction monitoring (MRM) MS/MS conditions (m/z 60.1→44.1 for TMA, m/z 69.1→49.1 for d9-TMA, m/z 63.0→46.1 for 13C3-TMA). TMA and d9-TMA calibration standards (STD), prepared in 80/20/0.1% acetonitrile/Water/Formic Acid, were used to construct a regression curve by plotting the response (peak area TMA/peak area 13C3-TMA) versus concentration for each standard. […]

On to `CC[N+](C)(CC)CCCN=C=S` [Compound 2, 3-Isothiocyanato-N,N-diethyl-N-methylpropanaminium iodide], for which the IC50 was 10.6 µM. On to `CCOC(=O)C(=O)C[N+](C)(C)CCN=C=S` [Compound 5, N-(Ethoxypropyl-2,3-dione)-2-isothiocyanato-N,N-dimethylethan-1-aminium bromide], for which the IC50 came out at 769 µM. As for `CCOC(=O)C(=O)C[N+](C)(C)CCCN=C=S` [Compound 6], the figure is 14.4 µM. Turning to `CC[N+](CC)(CCBr)CCCN=C=S` [Compound 7, N-(2-Bromoethyl)-3-isothiocyanato-N,N-diethylpropan-1-aminium triflate], the IC50 stood at 18.2 µM. As for `CC[N+](CC)(CC#N)CCCN=C=S` [Compound 9, N-Cyanomethyl-3-isothiocyanato-N,N-diethylpropan-1-aminium bromide], the figure is 60.5 µM.
